Key:
β-PDGFR [1] = target: T1, β-PDGFR (Homo sapiens, UniProt P09619); assay: MG63 phosphorylation assay (endogenous β-PDGFR phosphorylation, PDGF-BB stimulation with human plasma); type: cell-based; set-up: This assay is for measuring endogenous β-PDGFR phosphorylation in MG63 cells; endogenous in cells; host or cells: MG63 human osteosarcoma cells (ATCC); conditions: MG63 human osteosarcoma cells; PDGF-BB stimulation in presence of 45% human plasma; PDGF receptor phosphorylation; read-out: MG63 w/human plasma IC50
T1 sequence (P09619 33-1106): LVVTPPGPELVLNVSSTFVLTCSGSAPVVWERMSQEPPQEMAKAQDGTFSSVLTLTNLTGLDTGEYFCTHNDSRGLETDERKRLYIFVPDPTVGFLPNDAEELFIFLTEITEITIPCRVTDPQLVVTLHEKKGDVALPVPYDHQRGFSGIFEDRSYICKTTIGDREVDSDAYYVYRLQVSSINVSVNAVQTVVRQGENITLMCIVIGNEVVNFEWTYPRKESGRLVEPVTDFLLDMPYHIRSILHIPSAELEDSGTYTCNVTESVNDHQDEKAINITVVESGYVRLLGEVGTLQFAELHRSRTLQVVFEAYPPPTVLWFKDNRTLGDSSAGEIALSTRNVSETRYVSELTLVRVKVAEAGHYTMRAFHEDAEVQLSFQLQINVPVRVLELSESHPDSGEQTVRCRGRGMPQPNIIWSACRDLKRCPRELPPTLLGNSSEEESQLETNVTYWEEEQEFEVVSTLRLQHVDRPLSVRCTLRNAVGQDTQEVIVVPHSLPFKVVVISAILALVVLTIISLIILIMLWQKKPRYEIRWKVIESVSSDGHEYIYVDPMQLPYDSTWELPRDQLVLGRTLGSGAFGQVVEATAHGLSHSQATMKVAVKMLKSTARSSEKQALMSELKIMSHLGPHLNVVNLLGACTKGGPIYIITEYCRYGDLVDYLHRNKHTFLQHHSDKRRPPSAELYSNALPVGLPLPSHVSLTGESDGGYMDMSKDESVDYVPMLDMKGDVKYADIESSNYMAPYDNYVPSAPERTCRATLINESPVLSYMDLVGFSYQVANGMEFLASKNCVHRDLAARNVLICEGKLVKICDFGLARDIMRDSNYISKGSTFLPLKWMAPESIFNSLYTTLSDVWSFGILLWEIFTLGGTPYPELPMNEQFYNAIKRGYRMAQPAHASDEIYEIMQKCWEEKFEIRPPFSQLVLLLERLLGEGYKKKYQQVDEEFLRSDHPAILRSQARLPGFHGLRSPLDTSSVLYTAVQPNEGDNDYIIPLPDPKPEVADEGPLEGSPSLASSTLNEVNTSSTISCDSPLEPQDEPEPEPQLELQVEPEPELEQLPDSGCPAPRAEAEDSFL
Description: For the phosphorylation assay according to the invention, HR5 cells were grown to confluency in 96-well microtiter plates under standard tissue culture conditions, followed by serum-starvation for 16 hours. Quiescent cells were incubated at 37° C. without or with increasing concentrations of the test compound (0.01-30 uM) for 30 minutes followed by the addition of 8 nM PDGF BB for 10 minutes. Cells were lysed in 100 mM Tris, pH7.5, 750 mM NaCl, 0.5% Triton X-100, 10 mM sodium pyrophosphate, 50 mM NaF, 10 ug/ml aprotinin, 10 ug/ml leupeptin, 1 mM phenylmethylsulfonyl fluoride, 1 mM sodium vanadate, and the lysate was cleared by centrifugation at 15,000×g for 5 minutes. Clarified lysates were transferred into a second microtiter plate in which the wells were previously coated with 500 ng/well of 1B5B11 anti-β-PDGFR mAb, and then incubated for two hours at room temperature. After washing three times with binding buffer (0.3% gelatin, 25 mM Hepes pH 7.5, 100 mM NaCl, 0.01% Tween-20), 250 ng/ml of rabbit polyclonal anti-phosphotyrosine antibody (Transduction Laboratory) was added and plates were incubated at 37° C. for 60 minutes. […] Wells were washed prior to adding ABTS (Sigma), and the rate of substrate formation was monitored at 650 nm. […]

β-PDGFR [2] = target: T1, β-PDGFR; assay: HR5 phosphorylation assay (CHO cells overexpressing human β-PDGFR); type: cell-based; set-up: host or cells: CHO cells (HR5 line); conditions: 8 nM PDGF BB for 10 minutes, PDGF receptor phosphorylation
Description: The HR5 cell line is a cell line of CHO cells engineered to overexpress human β-PDGFR, which cell line is available from the ATCC. The expression level of β-PDGFR in HR5 cells is around 5×10^4 receptor per cell. For the phosphorylation assay according to the invention, HR5 cells were grown to confluency in 96-well microtiter plates under standard tissue culture conditions, followed by serum-starvation for 16 hours. Quiescent cells were incubated at 37° C. without or with increasing concentrations of the test compound (0.01-30 uM) for 30 minutes followed by the addition of 8 nM PDGF BB for 10 minutes. Cells were lysed in 100 mM Tris, pH7.5, 750 mM NaCl, 0.5% Triton X-100, 10 mM sodium pyrophosphate, 50 mM NaF, 10 ug/ml aprotinin, 10 ug/ml leupeptin, 1 mM phenylmethylsulfonyl fluoride, 1 mM sodium vanadate, and the lysate was cleared by centrifugation at 15,000×g for 5 minutes. Clarified lysates were transferred into a second microtiter plate in which the wells were previously coated with 500 ng/well of 1B5B11 anti-β-PDGFR mAb, and then incubated for two hours at room temperature. […] Wells were washed prior to adding ABTS (Sigma), and the rate of substrate formation was monitored at 650 nm.

IC50 (β-PDGFR [1]): 103 nM
IC50 (β-PDGFR [2]): 150 nM
SMILES: c1nc(N2CCNCC2)c2ccc(OCCN3CCCCC3)cc2n1 [Example 1, 4-piperazinyl-7-(2-piperidylethoxy)quinazoline]
